Measured values reported in patent US20240109897A1, “MODULATORS OF FPR1 AND METHODS OF USING THE SAME” (BEIJING TIANTAN HOSPITAL, priority 2021, published 2024).

Columns and labels:
[1] = test system: ICH mice; test: MRI lesion, hematoma and perihematomal edema volume in intracerebral hemorrhage (ICH) mouse model; format: in vivo; settings: 5 mg/kg/daily i.p., first dose 1 h after ICH onset, vs vehicle
Description: The intracerebral hemorrhage (ICH) model in mice was used to illustrate the protective benefits of the compounds of this disclosure, and FIG. 1 depicts the procedure in preparing this model. ICH was induced in C57 B/L6 male mice by the injection of an autologous blood or collagenase as previously described (Lauer et al., Circulation 124: 1654-1662 (2011); Rynkowski et al., Nat. Protoc. 3:122-128 (2008)). Mice were anesthetized using isoflurane inhalation and fixed on a stereotactic frame. A burr hole was drilled on the right side of the skull at 2.3 mm lateral to the midline and 0.5 mm anterior to the bregma. For the autologous blood model, 30 μl of non-heparinized blood was withdrawn from the angular vein. The first 5 μl blood was injected at a depth of 3 mm beneath the hole, and the rest 25 μl blood were injected at 3.7 mm beneath the hole with a rate of 1 μl/min. In the collagenase model, 0.038 U of the bacterial collagenase (in 0.5 μl saline) was infused to the striatum (0.5 mm anterior, 2.3 mm right lateral, and 3.5 mm deep relative to bregma) at a speed of 0.5 μl/min. Mice on the sham control were injected with an equal volume of saline. Throughout the procedure, the body temperature was maintained at 37° C. with a homeothermic blanket. After the surgery, mice were under observation with free access to food and water. […]
The total lesion volume was measured on the 7T small-animal MM scanner (Bruker, Corp., USA) as described (Li et al., 2017). The T2-weighted water imaging was recorded with following parameters (repetition time (TR)=4500 ms, echo time (TE)=65.5 ms, field of view (FOV)=28×28 mm^2, image matrix=256×256, at 0.5-mm slice thickness). […] The volumes were manually outlined and calculated by multiplying the sum of the volume by the distance between sections (0.5 mm) using MIPAV software. PHE volumes were calculated as total lesion volume minus hematoma volume. MRI data were analyzed by two investigators blinded to experimental groups.

[2] = target: T1, FPR1 (UniProt P21462); test: fMLP-FPR1 mediated calcium signaling assay in FPR1-overexpressing 293T cells; format: cell-based, human or mouse; settings: inhibition of fMLP-FPR1 mediated intracellular calcium change; hFPR1 or mFPR1 overexpressing 293T cells; 10 min preincubation; INDO-1 AM, FACS
T1 sequence (P21462 1-350): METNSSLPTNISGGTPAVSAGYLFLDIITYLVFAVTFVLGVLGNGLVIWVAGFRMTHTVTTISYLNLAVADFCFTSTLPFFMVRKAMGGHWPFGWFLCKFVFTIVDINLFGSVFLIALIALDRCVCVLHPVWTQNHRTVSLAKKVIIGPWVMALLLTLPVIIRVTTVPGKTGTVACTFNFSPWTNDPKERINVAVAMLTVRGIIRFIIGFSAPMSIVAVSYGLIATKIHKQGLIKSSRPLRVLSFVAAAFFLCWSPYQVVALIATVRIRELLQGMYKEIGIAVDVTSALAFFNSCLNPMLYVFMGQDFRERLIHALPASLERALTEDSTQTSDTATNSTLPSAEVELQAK
Protocol: The effects of the compounds of this disclosure on regulating the FPR1-mediated cell signaling were measured by monitoring the cellular calcium level change, as illustrated by the exemplary examples in Table 2. The dose response of the illustrated examples are reported categorically using the following ranking criteria: *** (IC50≤100 nM); ** (IC50≥100 to ≤1000 nM); * (IC50≥1000 to ≤10,000 nM); N.D.—not detected.
The coding DNA sequence (CDS) of human FPR1 (NM_001193306) and mouse FPR1 (NM_013521) were cloned and inserted to the lentivirus vector GV367 (Vector information:http://www.genechem.com.cn/index/supports/tool_search.html?keywords=GV367) under the conduction of pCMV promoter. 293T cells were cultured in H-DMEM supplemented with 10% FBS and 1% penicillin-streptomycin (PS) at 37° C. in 5% CO2 Incubator. 293T cells were transfected with lentivirus vector GV367 containing the CDS of human or mouse FPR1 for 24 h and then cultured with complete medium for another 48 h. At 72 h after transfected, cells were passaged, and 5 μg/ml puromycin was added to screen FPR1-transfected 293T cells. The overexpression of human or mouse FPR1 in 293 T cells were detected by immunostaining with anti-mouse or human FPR1 antibodies (Biolegend or Antibody Online).
Cultured hFPR1 or mFPR1 overexpressing 293T cells were labeled with 1 μM INDO-1 AM calcium sensor dye (eBioscience) for 30 min at 37° C. After washed with 1×PBS, cells were resuspended with H-DMEM containing 3% FBS, and were maintained on ice prior to the measurement of intracellular calcium concentration. To measure the inhibitory potency of designed potential FPR1 antagonists, hFPR1 or mFPR1 overexpressing 293T cells were incubated with the compound for 10 min at room temperature. The cytoplasmic calcium levels were then measured by FACS Aria III at 37° C. prior to and after the stimulation of fMLP. We defined the immunofluorescence intensity of indo-1 AM before adding fMLP as the basal value, and the intensity at the peak immunofluorescence reduction after adding fMLP as minimum value for each sample. The change of intracellular calcium was calculated as follow: (basal value−minimum value)/basal value×100%. The IC50 of each compound in inhibiting fMLP-FPR1 mediated intracellular calcium concentration in 293T cells were automatically calculated with Prism 8.0.2 software (GraphPad) after inputting a series of change of intracellular calcium at multiple concentration gradients (from 0 nM to 100 μM).

IC50 [2]: 100 to 1000 nM
Compound: Cc1ccc(O)c(-c2[nH]nc3c2C(c2ccc(C(F)(F)F)cc2)N(C2CCOCC2)C3=O)c1 (racemic) [Compound 1, Rac-3-(2-hydroxy-5-methylphenyl)-5-(tetrahydro-2H-pyran-4-yl)-4-(4-(trifluoromethyl)phenyl)-4,5-dihydropyrrolo[3,4-c]pyrazol-6(2H)-one]
perihematomal edema (PHE) size [1]: significantly reduced
